# Source: patent US9150555B2, “Amide derivative and use thereof” (Mitsubishi Tanabe Pharma Corporation, priority 2010, dated 2015)
# Key:
# [1] = test system: IL-17 production of mouse spleen cells stimulated by rm-IL-23; test: Production of IL-17 induced when mouse spleen cells were stimulated by recombinant mouse interleukin-23 (rm-IL-23); type: cell-based; details: inhibition of IL-17 production, DBA/1J mouse spleen cells, rm-IL-23 1 nmol/L, ELISA
# Procedure, shortened: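 Spleen cells from 6-7 week-old male DBA/1J mice, 2×10^5 cells/well in 10% FCS RPMI1640, cultured 72 h at 37° C with compound (1 to 1,000 nmol/L) plus 1 nmol/L rm-IL-23. IL-17 in supernatant by ELISA; viability by WST-8 absorbance at 450 nm; IC50 by linear regression of inhibition rate.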
# hERG [2] = biological target: T1, hERG (Homo sapiens, UniProt Q12809); test: in vitro; details: pH 7.4, hERG inhibition rate (%) (1 μM)
# [3] = biological target: hERG current in hERG-expressed HEK 293 cells (Homo sapiens, UniProt Q12809); test: Effects on hERG current (whole-cell clamping); details: 1 μM; tail peak current; hERG-expressed HEK 293 cells
# [4] = test system: Type II collagen-induced arthritis in DBA/1J mice; test: Type II collagen-induced arthritis in DBA/1J mice; type: in vivo, mouse; details: dose showing significant inhibitory effect on arthritis, oral, once a day for three weeks from booster immunization; for minimal effective dose: Mus musculus, 504 h
# Method: Effect on Type II Collagen-Induced Arthritis in DBA/1J Mice
# An emulsion was prepared by mixing bovine II collagen (100-200 μg purchased from collagen Gijyutsu Kenshuukai) and Freund's complete adjuvant (Sigma Aldrich) containing killed Mycobacterium tuberculosis H37Ra. Arthritis was induced by immunization through subcutaneous administration of the emulsion to the tail of 6-7 week-old male DBA/1J mouse (Charles River Japan, Inc.), followed by booster immunization three weeks later by administration of an emulsion prepared by mixing bovine II collagen with Freund's incomplete adjuvant (Sigma-Aldrich). Test compound was suspended or dissolved in 0.5% carboxymethylcellulose (Sigma-Aldrich) and repeatedly administered orally once a day at a dose of 0.1 to 10 mg/kg body weight using an oralsonde for three weeks from the day of booster immunization. In this model, the symptom of arthritis of the limbs was each evaluated according to the following evaluation criteria of 0 to 4 scores: 0, No change; 1, edema in only one joint; 2, edema in two or more joints, or light edema of the entire limb; 3, severe edema of the entire limb; 4, severe edema of the entire limb and ankylosis and immovability of joint. The score of arthritis of each mouse was expressed as the total of the scores of the limbs (Maximum: 16 points). On the next day of the last administration, soft X-ray photograph of the limbs was taken with soft X-ray equipment (Omic), and the level of joint destruction was evaluated by observation under a microscope. In each finger of the limbs the score of joint destruction was judged as 0 when no joint destruction was found, and as 1 when one or more destruction was found, and the score of joint destruction of a mouse was expressed as the total of scores for each finger of limb (Maximum: 20). The arthritis score and joint destruction score were expressed as the average value and standard error for each group (n=6-8). Only a vehicle was administered in a control group, and statistical analysis was performed by Dunnett's multiple comparison test, in which the case was judged as significant when the p value was less than 0.05.
# hERG [5] = biological target: T1, hERG; test: Effects on hERG current (whole-cell clamping); details: human, HEK 293 cells that express hERG, pH 7.4, hERG inhibition rate (%) (1 μM), 1 μM; tail peak current; hERG-expressed HEK 293 cells
# T1 sequence (Q12809 whole entry): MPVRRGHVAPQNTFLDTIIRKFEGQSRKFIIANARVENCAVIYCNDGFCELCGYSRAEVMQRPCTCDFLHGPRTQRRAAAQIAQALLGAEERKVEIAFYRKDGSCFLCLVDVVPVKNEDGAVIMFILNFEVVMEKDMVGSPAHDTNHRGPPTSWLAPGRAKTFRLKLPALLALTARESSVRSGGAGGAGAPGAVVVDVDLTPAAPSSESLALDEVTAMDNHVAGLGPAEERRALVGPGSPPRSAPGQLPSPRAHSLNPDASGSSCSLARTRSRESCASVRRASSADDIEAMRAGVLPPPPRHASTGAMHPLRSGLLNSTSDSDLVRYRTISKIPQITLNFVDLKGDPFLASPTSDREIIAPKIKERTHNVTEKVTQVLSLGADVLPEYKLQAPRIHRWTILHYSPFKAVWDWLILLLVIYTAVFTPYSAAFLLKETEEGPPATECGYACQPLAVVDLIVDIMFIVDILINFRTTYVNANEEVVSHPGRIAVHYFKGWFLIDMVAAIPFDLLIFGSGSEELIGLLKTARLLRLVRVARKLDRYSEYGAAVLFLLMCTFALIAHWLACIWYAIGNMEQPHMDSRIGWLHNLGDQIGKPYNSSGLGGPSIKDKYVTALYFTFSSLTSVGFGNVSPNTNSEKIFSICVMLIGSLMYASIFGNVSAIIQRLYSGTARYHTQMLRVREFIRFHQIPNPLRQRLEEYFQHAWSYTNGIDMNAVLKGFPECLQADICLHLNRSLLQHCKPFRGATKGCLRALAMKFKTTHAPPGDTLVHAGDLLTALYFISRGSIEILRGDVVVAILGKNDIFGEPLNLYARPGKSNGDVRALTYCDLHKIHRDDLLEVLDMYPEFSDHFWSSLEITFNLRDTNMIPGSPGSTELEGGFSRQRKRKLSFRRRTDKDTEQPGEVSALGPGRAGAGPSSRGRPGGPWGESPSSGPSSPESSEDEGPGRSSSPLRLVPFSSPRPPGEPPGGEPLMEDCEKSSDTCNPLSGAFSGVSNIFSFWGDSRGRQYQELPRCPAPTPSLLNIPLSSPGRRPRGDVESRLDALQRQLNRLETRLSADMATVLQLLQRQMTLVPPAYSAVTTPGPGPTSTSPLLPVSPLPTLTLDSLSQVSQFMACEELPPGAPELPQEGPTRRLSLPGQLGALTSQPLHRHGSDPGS
# Chain of hERG current in hERG-expressed HEK 293 cells (Q12809 whole entry): as above
Compound,IC50 ([1]; 72 hours) [nM],inhibition at 1 µM (hERG [2]) [%],"IC50 ([1]; Mus musculus, 72 h) [nM]",minimal effective dose [4] [mg/kg],inhibition at 1 µM (hERG [5]) [%],further results
"Cc1c(C(=O)Nc2ccc(C3(C#N)CCN([C@H]4CCO[C@H]4C)CC3)nc2)cnn1-c1ccc(C(F)(F)F)cn1 (relative stereo) [Example D8, cis-N-{6-[4-Cyano-1-(2-methyltetrahydrofuran-3-yl)piperidin-4-yl]pyridin-3-yl}-5-methyl-1-[5-(trifluoromethyl)pyridin-2-yl]-1H-pyrazole-4-carboxamide]",114,15.8,–,–,–,–
"Cc1c(C(=O)Nc2ccc(C3(C#N)CCN([C@H]4CCO[C@H]4C)CC3)nc2)cnn1-c1ccc(C2CC2)cn1 (relative stereo) [Example D10, cis-N-{6-[4-Cyano-1-(2-methyltetrahydrofuran-3-yl)piperidin-4-yl]pyridin-3-yl}-1-(5-cyclopropylpyridin-2-yl)-5-methyl-1H-pyrazole-4-carboxamide]",120,6.7,–,–,–,–
"Cc1c(C(=O)Nc2ccc(C3(C#N)CCN([C@H]4CCO[C@H]4C)CC3)nc2)cnn1-c1ccc(C(F)(F)F)cc1 (relative stereo) [Example D11, cis-N-{6-[4-Cyano-1-(2-methyltetrahydrofuran-3-yl)piperidin-4-yl]pyridin-3-yl}-5-methyl-1-[4-(trifluoromethyl)phenyl]-1H-pyrazole-4-carboxamide]",53.4,21,–,–,–,–
"Cc1ccc(-n2ncc(C(=O)Nc3ccc(C4(C#N)CCC(N5CCOCC5)CC4)nc3)c2C)cc1.Cl (stereo not drawn) [Example D2, N-{6-[r-1-Cyano-c-4-(morpholin-4-yl)cyclohexyl]pyridin-3-yl}-5-methyl-1-(4-methylphenyl)-1H-pyrazole-4-carboxamide hydrochloride]",193,–,–,–,–,hERG inhibition rate (%) (1 μM) [3]: 43.4%
"Cc1c(C(=O)Nc2ccc(C3(C#N)CCN(CC(C)(C)O)CC3)nc2)cnn1-c1ccc(C(F)(F)F)cn1 [Example D9, N-{6-[4-Cyano-1-(2-hydroxy-2-methylpropyl)piperidin-4-yl]pyridin-3-yl}-5-methyl-1-[5-(trifluoromethyl)pyridin-2-yl]-1H-pyrazole-4-carboxamide]",76.7,42.1,–,–,–,–
"Cc1c(C(=O)Nc2ccc(C3(C#N)CCN(CC(C)(C)O)CC3)nc2)cnn1-c1ccc(C2CC2)cn1 [Example D12, N-{6-[4-Cyano-1-(2-hydroxy-2-methylpropyl)piperidin-4-yl]pyridin-3-yl}-1-(5-cyclopropylpyridin-2-yl)-5-methyl-1H-pyrazole-4-carboxamide]",117,29.2,–,–,–,–
"CS(=O)(=O)O.Cc1cc(NC(=O)c2cnn(-c3ccc(C(F)(F)F)cn3)c2C)cnc1C1=CCC(N2CCOCC2)CC1 (stereo not drawn) [Example D20, 5-Methyl-N-{5-methyl-6-[4-(morpholin-4-yl)cyclohex-1-en-1-yl]pyridin-3-yl}-1-[5-(trifluoromethyl)pyridin-2-yl]-1H-pyrazole-4-carboxamide mesylate]",–,–,56.4,1,32.2,–
Cc1c(C(=O)Nc2ccc(C3(C#N)CCN(CC(C)(C)O)CC3)nc2)cnn1-c1ccc(Cl)cc1 [Example D116],129,41.2,–,–,–,–
Cc1c(C(=O)Nc2ccc(C3(C#N)CCN(CC(C)(C)O)CC3)nc2)cnn1-c1ccc(C(F)(F)F)cc1 [Example D117],57,35.6,–,–,–,–
Cc1c(C(=O)Nc2ccc([C@]3(C#N)CC[C@@H](N4CCOCC4)CC3)nc2)cnn1-c1ccc(C(F)(F)F)cc1 [Example D146],–,–,46.6,0.1,47.2,–
Cc1cc(NC(=O)c2cnn(-c3ccc(C(F)(F)F)cn3)c2C)cnc1C1=CC[C@@H](N2CCOCC2)CC1 [Example D303],48,–,–,–,–,hERG inhibition rate (%) (1 μM) [3]: 22.7%
Cc1c(C(=O)Nc2ccc(C3(C#N)CCN(C4CCOCC4)CC3)nc2)cnn1-c1ccc(C(F)(F)F)cc1 [Example E7],349,21.1,–,–,–,–
Cc1c(C(=O)Nc2ccc(C3CCC(=O)CC3)nc2)cnn1-c1ccc(Cl)cc1 [Example E13],–,–,109,1,10.3,–
Cc1cc(NC(=O)c2cnn(-c3ccc(C(F)(F)F)cc3)c2C)cnc1C1=CCC(N2CCOCC2)CC1 (stereo not drawn) [Example E24],–,–,–,1,–,–
"Cc1c(C(=O)Nc2ccc([C@]3(C#N)CC[C@@H](O)CC3)nc2)cnn1-c1ccc(Cl)cc1 [Example G1, 1-(4-Chlorophenyl)-N-[6-(r-1-cyano-c-4-hydroxycyclohexyl)pyridin-3-yl]-5-methyl-1H-pyrazole-4-carboxamide]",–,–,118,3,25.8,–
"Cc1c(C(=O)Nc2ccc([C@]3(C#N)CC[C@@H](O)CC3)nc2)cnn1-c1ccc(F)cc1 [Example G2, N-[6-(r-1-cyano-c-4-hydroxycyclohexyl)pyridin-3-yl]-1-(4-fluorophenyl)-5-methyl-1H-pyrazole-4-carboxamide]",–,–,194,1,15.2,–
"Cc1ccc(-n2ncc(C(=O)Nc3ccc([C@]4(C#N)CC[C@@H](O)CC4)nc3)c2C)cc1 [Example G3, N-[6-(r-1-Cyano-c-4-hydroxycyclohexyl)pyridin-3-yl]-5-methyl-1-(4-methylphenyl)-1H-pyrazole-4-carboxamide]",–,–,91.8,1,4.4,–
Cc1c(C(=O)Nc2ccc([C@]3(C#N)CC[C@@H](O)CC3)nc2)cnn1-c1ccc(C(F)(F)F)cc1 [Example G6],–,–,73.9,–,26,Effective Dose [4]: 10 mg/kg
Cc1c(C(=O)Nc2ccc([C@]3(C#N)CC[C@@H](O)CC3)nc2)cnn1-c1ccc(F)cc1F [Example G7],–,–,198,0.3,5.2,–
Cc1c(C(=O)Nc2ccc([C@]3(C#N)CC[C@H](O)CC3)nc2)cnn1-c1ccc(C(F)(F)F)cc1 [Example K2],–,–,–,10,–,–
"Cc1cc(NC(=O)c2cnn(-c3ccc(C(F)(F)F)cn3)c2C)cnc1C1=CCN(C(=O)N2CCCC2)CC1 [Example K52, 5-Methyl-N-{5-methyl-1-(pyrrolidin-1-ylcarbonyl)-6-[1,2,3,6-tetrahydropyridin-4-yl]pyridin-3-yl}-1-[5-(trifluoromethyl)pyridin-2-yl]-1H-pyrazole-4-carboxamide]",–,–,160,–,31.5,–
"Cc1cc(NC(=O)c2cnn(-c3ccc(C(F)(F)F)cn3)c2C)cnc1C1CCN(S(=O)(=O)C(C)C)CC1 [Example K55, 5-Methyl-N-{5-methyl-6-[1-(propane-2-sulfonyl)piperidin-4-yl]pyridin-3-yl}-1-[5-(trifluoromethyl)pyridin-2-yl]-1H-pyrazole-4-carboxamide]",–,–,46.4,–,29.5,–
"Cc1cc(NC(=O)c2cnn(-c3ccc(C(F)(F)F)cn3)c2C)cnc1C1CCN(C(=O)C(F)(F)F)CC1 [Example K60, 5-Methyl-N-{5-methyl-6-[1-(trifluoroacetyl)piperidin-4-yl]pyridin-3-yl}-1-[5-(trifluoromethyl)pyridin-2-yl]-1H-pyrazole-4-carboxamide]",–,–,47.2,–,22.8,–
"Cc1c(C(=O)Nc2cnc(C3=CCC(N(C)C(=O)C(C)(C)C)CC3)cn2)cnn1-c1ccc(C(F)(F)F)cn1 (stereo not drawn) [Example K64, N-(5-{4-[N-(2,2-Dimethylpropion-1-yl)-N-methylamino]cyclohex-1-en-1-yl}pyrazin-2-yl)-5-methyl-1-[5-(trifluoromethyl)pyridin-2-yl]-1H-pyrazole-4-carboxamide]",–,–,157,–,2.3,–
